From patent US10765114B2, “4-amino-6-(pyridyl and 2-substitutedphenyl)-picolinates and 6-amino-2-(pyridyl and 2-substitutedphenyl)-pyrimidine-4-carboxylates and their use as herbicides” (Dow AgroSciences LLC, priority 2013, dated 2020)
Where two headings read alike, the source gives them in different places.

What was measured:
[1] = test system: Key Grass and Sedge Weeds as well as Grass Crops; experiment: Post-Emergent Test II (Table 6); type: in vivo; conditions: post-emergence, 336 h, 14 days after application; for pest or weed control at 70 g/ha: 70 g ai/ha; for pest or weed control at 140 g/ha: 140 g ai/ha
Method in brief: (§1)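 Plants grown in a greenhouse (~15 h photoperiod, 23-29° C day) to first or second true leaf stage were sprayed post-emergence at 187 L/ha with compound in acetone/DMSO-based aqueous spray containing crop oil concentrate and surfactant, applied at a high rate plus ½× to 1/16× serial rates. Injury was scored visually 14 days later, 0-100% versus untreated plants.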

[2] = test system: Key Broadleaf Weed and Crop Species; experiment: Post-Emergent Test II (Table 5); type: in vivo; conditions: post-emergence, 336 h; for pest or weed control at 70 g/ha: application rate 70 (kg ai/ha; footnote: g ai/ha); for pest or weed control at 140 g/ha: application rate 140 (kg ai/ha; footnote: g ai/ha)
Method in brief: as §1

[3] = CYPSS, read-out: Visual Growth Reduction (%) 14 Days After Application CYPSS
[4] = DIGSA: crabgrass (Digitaria sanguinalis), read-out: Visual Growth Reduction (%) 14 Days After Application DIGSA
[5] = ECHSS, read-out: Visual Growth Reduction (%) 14 Days After Application ECHSS
[6] = ORYSS (crop), read-out: Visual Growth Reduction (%) 14 Days After Application ORYSS
[7] = SETFA: giant foxtail (Setaria faberi), read-out: Visual Growth Reduction (%) 14 Days After Application SETFA
[8] = SORVU: grain sorghum (Sorghum vulgare), read-out: Visual Growth Reduction (%) 14 Days After Application SORVU
[9] = TRZSS (crop), read-out: Visual Growth Reduction (%) 14 Days After Application TRZSS
[10] = ZEAMX: maize, corn (Zea mays), read-out: Visual Growth Reduction (%) 14 Days After Application ZEAMX
[11] = Abutilon theophrasti, ABUTH: velvetleaf (Abutilon theophrasti), read-out: Visual Growth Reduction (%) 14 Days After Application ABUTH
[12] = Amaranthus retroflexus, AMARE: redroot pigweed (Amaranthus retroflexus), read-out: Visual Growth Reduction (%) 14 Days After Application AMARE
[13] = Brassica napus, BRSSS: oilseed rape, canola (Brassica napus), read-out: Visual Growth Reduction (%) 14 Days After Application BRSSS
[14] = Chenopodium album, CHEAL: lambsquarters (Chenopodium album), read-out: Visual Growth Reduction (%) 14 Days After Application CHEAL
[15] = Euphorbia heterophylla, EPHHL: wild poinsettia (Euphorbia heterophylla), read-out: Visual Growth Reduction (%) 14 Days After Application EPHHL
[16] = Helianthus annuus, HELAN: sunflower (Helianthus annuus), read-out: Visual Growth Reduction (%) 14 Days After Application HELAN
[17] = Viola tricolor, VIOTR: wild pansy (Viola tricolor), read-out: Visual Growth Reduction (%) 14 Days After Application VIOTR

Compound	melting point	pest or weed control at 70 g/ha [1, 3]	pest or weed control at 140 g/ha [1, 3]	pest or weed control at 70 g/ha [1, 4]	pest or weed control at 140 g/ha [1, 4]	pest or weed control at 70 g/ha [1, 5]	pest or weed control at 140 g/ha [1, 5]	pest or weed control at 70 g/ha [1, 6]	pest or weed control at 140 g/ha [1, 6]	pest or weed control at 70 g/ha [1, 7]	pest or weed control at 140 g/ha [1, 7]	pest or weed control at 70 g/ha [1, 8]	pest or weed control at 140 g/ha [1, 8]	pest or weed control at 70 g/ha [1, 9]	pest or weed control at 140 g/ha [1, 9]	pest or weed control at 70 g/ha [1, 10]	pest or weed control at 140 g/ha [1, 10]	pest or weed control at 70 g/ha [2, 11]	pest or weed control at 140 g/ha [2, 11]	pest or weed control at 70 g/ha [2, 12]	also measured
COc1nc(C(F)(F)F)ccc1-c1cc(N)c(Cl)c(C(=O)O)n1 [Compound 65]	169 to 171 °C	0 to 29%	0 to 29%	0 to 29%	0 to 29%	0 to 29%	0 to 29%	0 to 29%	0 to 29%	0 to 29%	0 to 29%	0 to 29%	0 to 29%	0 to 29%	0 to 29%	0 to 29%	0 to 29%	0 to 29%	0 to 29%	85 to 94%	pest or weed control at 140 g/ha [2, 12]: 85 to 94%; pest or weed control at 70 g/ha [2, 13]: 0 to 29%; pest or weed control at 140 g/ha [2, 13]: 0 to 29%; pest or weed control at 70 g/ha [2, 14]: 0 to 29%; pest or weed control at 140 g/ha [2, 14]: 0 to 29%; pest or weed control at 70 g/ha [2, 15]: 0 to 29%; pest or weed control at 140 g/ha [2, 15]: 0 to 29%; pest or weed control at 70 g/ha [2, 16]: 45 to 59%; pest or weed control at 140 g/ha [2, 16]: 45 to 59%; pest or weed control at 70 g/ha [2, 17]: 0 to 29%; pest or weed control at 140 g/ha [2, 17]: 0 to 29%
COC(=O)c1nc(-c2ccc(C3CC3)nc2)c(F)c(N)c1Cl [Compound 49]	124 to 126 °C	95 to 100%	95 to 100%	75 to 84%	75 to 84%	95 to 100%	95 to 100%	30 to 44%	30 to 44%	85 to 94%	85 to 94%	85 to 94%	85 to 94%	45 to 59%	45 to 59%	95 to 100%	95 to 100%	95 to 100%	95 to 100%	95 to 100%	pest or weed control at 140 g/ha [2, 12]: 95 to 100%; pest or weed control at 70 g/ha [2, 13]: 75 to 84%; pest or weed control at 140 g/ha [2, 13]: 75 to 84%; pest or weed control at 70 g/ha [2, 14]: 95 to 100%; pest or weed control at 140 g/ha [2, 14]: 95 to 100%; pest or weed control at 70 g/ha [2, 15]: 95 to 100%; pest or weed control at 140 g/ha [2, 15]: 95 to 100%; pest or weed control at 70 g/ha [2, 16]: 95 to 100%; pest or weed control at 140 g/ha [2, 16]: 95 to 100%; pest or weed control at 70 g/ha [2, 17]: 30 to 44%; pest or weed control at 140 g/ha [2, 17]: 45 to 59%
COC(=O)c1nc(-c2ccc(C(F)(F)F)nc2)c(C)c(N)c1Cl [Compound 32]	145 °C	95 to 100%	95 to 100%	75 to 84%	75 to 84%	85 to 94%	85 to 94%	0 to 29%	0 to 29%	85 to 94%	85 to 94%	60 to 74%	75 to 84%	60 to 74%	60 to 74%	60 to 74%	60 to 74%	45 to 59%	85 to 94%	0 to 29%	pest or weed control at 140 g/ha [2, 12]: 0 to 29%; pest or weed control at 70 g/ha [2, 13]: 60 to 74%; pest or weed control at 140 g/ha [2, 13]: 75 to 84%; pest or weed control at 70 g/ha [2, 14]: 85 to 94%; pest or weed control at 140 g/ha [2, 14]: 85 to 94%; pest or weed control at 70 g/ha [2, 15]: 0 to 29%; pest or weed control at 140 g/ha [2, 15]: 0 to 29%; pest or weed control at 70 g/ha [2, 16]: 95 to 100%; pest or weed control at 140 g/ha [2, 16]: 95 to 100%; pest or weed control at 70 g/ha [2, 17]: 45 to 59%; pest or weed control at 140 g/ha [2, 17]: 75 to 84%
